Literature values as cited in patent US20050152951A1, “Liquid, eye-instillable preparations comprising sodium hyaluronate” (priority 2001, published 2005).

Conditions: water retained by 1 gram of SH

Sodium hyaluronate [SH]
water retention: up to 6 litres
